Measurements reported in publication PMC11653243, “Enhancing Phototoxicity in BODIPY‐Perylene Charge Transfer Dyads by Combined Iodination and Mesylation” (Chemistry (Weinheim an Der Bergstrasse, Germany), 2024).
Values joined by “and” are separate entries in the source; they are usually repeats but may differ in a detail not shown here. Equal values may be shown once. Read-outs that look alike come from different tables or passages of the source.

What was measured:
HeLa cells = tested on: HeLa cells; parameters: method as in PMID 31743947; details: 9.6 J/cm^2, 500 nm irradiation; cited from earlier work
[1] = parameters: method as in PMID 36802283; details: cited from earlier work
[2] = Photophysical properties (absorption, emission, quantum yield, lifetime) in solvents; type: physicochemical; details: for Φf: absolute quantum yield, integrating sphere; for τave: intensity weighted average lifetime; for kr: kr=ΦF/τave; for emission intensity from water relative to emission intensity from toluene: matched absorption, water with 10 % DMSO
Excerpt: The absorption and emission spectra of MB2P and MB2PI are shown in Figure 3, in a range of solvents across polarities. […] The absorption maxima is largely unaffected by solvent, similar to B2P/B2PI. The extinction coefficient is also modestly affected for MB2P but does vary with solvent for MB2PI, although the change is not correlated with solvent polarity. All compounds also show characteristic perylene absorption features between 400 and 430 nm. Also consistent with this previous study, the emission spectra are strongly solvent dependent. Intensely emissive from non‐polar media, MB2P and MB2PI are minimally emissive in polar (ethanol and DMSO) and aqueous media, (with 10 % DMSO for solubilisation). For example, under matched absorption conditions used to generate Figure 3, the emission intensity from water was 0.13 % (MB2P) and 1.6 % (MB2PI) of the emission intensity from toluene (see Figure S20).
Figure 3 Right, Absorption spectra of (A) MB2P and (B) MB2PI in different solvents at 10 μM, and, left, their respective emission. Excitation wavelength 532 nm, data recorded with 2.5–2.5 nm slit widths.

CHO cells = assay: ROS imaging with H2DCFDA in live cells; type: cell-based, Chinese Hamster; details: 30 μM, 17 h; 488 nm (0.38 mW/cm^2) for 5 minutes
Protocol: To study the production of ROS in a live cell environment a commercial ROS dye, H2DCFDA was used. CHO and MCF‐7 cells were incubated with MB2PI (30 μM, 17 h), washed with PBS and co‐stained with H2DCFDA (5 μM, 30 min). To ensure no photoactivation of MB2PI, emission from H2DCFDA was collected alone prior to the excitation of the BODIPY. The complex was then irradiated continuously at 488 nm (0.38 mW/cm^2) for 5 minutes. […] Weak emission of H2DCFDA was observed prior to irradiation, consistent with the low cytotoxicity of the complex. However, after irradiation, the fluorescence intensity of the ROS dye increases dramatically indicating ROS production, consistent with the high phototoxicity of MB2PI in both test cell lines. The higher phototoxicity of MB2PI in MCF‐7 cells restricted the ROS imaging study to CHO cells as the MCF‐7 cells began to die rapidly upon irradiation. Controls completed by adding H2DCFDA in test cells without MB2PI confirmed no ROS production with or without irradiation at 488 nm.
Figure S32. DPBF (10 mM) 1O2 scavenger assay with B2P, MB2P, B2PI or MB2PI in methanol from 0-210 seconds irradiation, where absorbance at 410 nm was recorded every 30 seconds.
CHO and MCF-7 cells were treated with MB2PI (30 µM, 17 h) for the ROS imaging studies. […]
A 63x oil immersion objective was used to acquire images. The irradiance was determined using a power meter from Edmund Optics. […]

CC1=CC(C)=[N+]2C1=C(c1ccccc1)c1c(C)c(-c3ccc4c5cccc6cccc(c7cccc3c74)c65)c(C)n1[B-]2(F)F [B2P]
phototoxic index (PI) (HeLa cells): 1041 | Amp of τ1 ([1]; Dioxane): 5.3% | Amp of τ2 ([1]; Dioxane): 94.7% | Mol. Bright ([1]; Dioxane): 6588 | Stokes Shift ([1]; Dioxane): 3417 cm⁻¹ | knr ([1]; Dioxane): 44 10^7 s^−1 | kr ([1]; Dioxane): 4.6 10^7 s^−1 | Φf ([1]; Dioxane): 0.09 | λabs ([1]; Dioxane): 515 nm | λem ([1]; Dioxane): 625 nm | τ1 ([1]; Dioxane): 4.1±0.2 ns | τ2 ([1]; Dioxane): 1.8±0.0 ns | τave ([1]; Dioxane): 2.0±0.0 ns | ϵ ([1]; Dioxane): 73200 M⁻¹ cm⁻¹ | Mol. Bright ([1]; Toluene): 16884 | Stokes Shift ([1]; Toluene): 3071 cm⁻¹ | knr ([1]; Toluene): 79 10^7 s^−1 | kr ([1]; Toluene): 2.6 10^7 s^−1 | Φf ([1]; Toluene): 0.21 | λabs ([1]; Toluene): 518 nm | λem ([1]; Toluene): 616 nm | τ1 ([1]; Toluene): 2.5±0.0 ns | τave ([1]; Toluene): 2.5±0.01 ns | ϵ ([1]; Toluene): 80400 M⁻¹ cm⁻¹

CC1=C(I)C(C)=[N+]2C1=C(c1ccccc1)c1c(C)c(-c3ccc4c5cccc6cccc(c7cccc3c74)c65)c(C)n1[B-]2(F)F [B2PI]
Mol. Bright ([1]; Dioxane): 2028 | Stokes Shift ([1]; Dioxane): 3232 cm⁻¹ | knr ([1]; Dioxane): 68 10^7 s^−1 | kr ([1]; Dioxane): 1.8 10^7 s^−1 | Φf ([1]; Dioxane): 0.03 | λabs ([1]; Dioxane): 531 nm | λem ([1]; Dioxane): 641 nm | τave ([1]; Dioxane): 1.4±0.01 ns | ϵ ([1]; Dioxane): 67600 M⁻¹ cm⁻¹ | Amp of τ1 ([1]; Toluene): 7.2% | Amp of τ2 ([1]; Toluene): 92.8% | Mol. Bright ([1]; Toluene): 1899 | Stokes Shift ([1]; Toluene): 3003 cm⁻¹ | knr ([1]; Toluene): 32 10^7 s^−1 | kr ([1]; Toluene): 8.5 10^7 s^−1 | Φf ([1]; Toluene): 0.03 | λabs ([1]; Toluene): 534 nm | λem ([1]; Toluene): 636 nm | τ1 ([1]; Toluene): 2.9±0.1 ns | τ2 ([1]; Toluene): 0.7±0.01 ns | τave ([1]; Toluene): 1.2±0.0 ns | ϵ ([1]; Toluene): 63300 M⁻¹ cm⁻¹

CC1=C(c2ccc3c4cccc5cccc(c6cccc2c63)c54)C(C)=[N+]2C1=C(c1c(C)cc(C)cc1C)c1c(C)cc(C)n1[B-]2(F)F [MB2P]
Mol. Bright ([2]; Dioxane): 20516 | Stokes Shift ([2]; Dioxane): 3131 cm⁻¹ | knr ([2]; Dioxane): 25 10^7 s^−1 | λem ([2]; Dioxane): 614 nm | τ1 ([2]; Dioxane): 3.1±0.1 ns | ϵ ([2]; Dioxane): 89200 M⁻¹ cm⁻¹ | Φf ([2]; Dioxane): 0.23 | τave ([2]; Dioxane): 3.1±0.1 ns | kr ([2]; Dioxane): 7.4 10^7 s^−1 | Mol. Bright ([2]; Toluene): 32148 | Stokes Shift ([2]; Toluene): 3002 cm⁻¹ | knr ([2]; Toluene): 23 10^7 s^−1 | λabs ([2]; Toluene): 517 nm | λem ([2]; Toluene): 612 nm | τ1 ([2]; Toluene): 2.8±0.0 ns | ϵ ([2]; Toluene): 89300 M⁻¹ cm⁻¹ | Φf ([2]; Toluene): 0.36 | τave ([2]; Toluene): 2.8±0.0 ns | kr ([2]; Toluene): 12.9 10^7 s^−1 | emission intensity from water relative to emission intensity from toluene [2]: 0.13%

CC1=C(c2ccc3c4cccc5cccc(c6cccc2c63)c54)C(C)=[N+]2C1=C(c1c(C)cc(C)cc1C)c1c(C)c(I)c(C)n1[B-]2(F)F [MB2PI]
Amp of τ1 ([2]; Dioxane): 2.5% | Amp of τ2 ([2]; Dioxane): 97.5% | Mol. Bright ([2]; Dioxane): 4374 | Stokes Shift ([2]; Dioxane): 3049 cm⁻¹ | knr ([2]; Dioxane): 85 10^7 s^−1 | λabs ([2]; Dioxane): ~532 nm | λem ([2]; Dioxane): 635 nm | τ1 ([2]; Dioxane): 4.0±0.1 ns | τ2 ([2]; Dioxane): 0.7 ns and 0.7±0.01 ns | ϵ ([2]; Dioxane): 72900 M⁻¹ cm⁻¹ | Φf ([2]; Dioxane): 0.06 | τave ([2]; Dioxane): 1.1±0.0 ns | kr ([2]; Dioxane): 5.73 10^7 s^−1 | Amp of τ1 ([2]; Toluene): 5.6% | Amp of τ2 ([2]; Toluene): 94.4% | Mol. Bright ([2]; Toluene): 6534 | Stokes Shift ([2]; Toluene): 2854 cm⁻¹ | knr ([2]; Toluene): 114 10^7 s^−1 | λabs ([2]; Toluene): 534 nm | λem ([2]; Toluene): 630 nm | τ1 ([2]; Toluene): 1.6±0.1 ns | τ2 ([2]; Toluene): 0.7 ns and 0.7±0.01 ns | ϵ ([2]; Toluene): 72600 M⁻¹ cm⁻¹ | Φf ([2]; Toluene): 0.09 | τave ([2]; Toluene): 0.8±0.0 ns | kr ([2]; Toluene): 11.2 10^7 s^−1 | emission intensity from water relative to emission intensity from toluene [2]: 1.6% | ROS production (H2DCFDA fluorescence) after irradiation (CHO cells): increased production of ROS
